{
  "source": "patent US3963579A",
  "about": "“Microbiological process for the production of pepstatins” (Sanraku-Ocean Co., Ltd., priority 1973, dated 1976)",
  "origin": "cited, not measured here",
  "details": "clinical, reported",
  "note": "Square brackets hold non-standard residues; d marks the D form. Peptide text beside a SMILES is read from it. * marks the point of attachment. Sta = CC(C)C[C@H](N)[C@@H](O)CC(=O)O; Isovaleryl = CC(C)CC(=O)*",
  "data": [
    {"smiles": "CC(C)CC(=O)N[C@H](C(=O)N[C@H](C(=O)N[C@@H](CC(C)C)[C@@H](O)CC(=O)N[C@@H](C)C(=O)N[C@@H](CC(C)C)[C@@H](O)CC(=O)O)C(C)C)C(C)C", "note": "[pepstatin A] (Isovaleryl-VV[Sta]A[Sta]-OH)", "values": [
      {"measurement": "effect on gastric ulcers clinically", "result": "takes effect on gastric ulcers clinically"}
    ]}
  ]
}
